According to article PMC3183257 (Tuberculosis (Edinburgh, Scotland), 2011):
Values after ≈ are worked out from the molar mass of the structure shown.

Legend:
[1] = test system: Mycobacterium tuberculosis H37Rv; test: Mtb dose response; type: cell-based; details: for IC90: Table 2, Mtb H37Rv dose response
Vero cells = test: Cell cytotoxicity assay using Vero cells, CellTiter-Glo luminescence
[2] = test system: tufted apple budmoth larvae (P. idaeusalis); details: cited from earlier work

| SMILES | IC90 [1] [µg/mL] | other results |
| --- | --- | --- |
| NCC[C@H](O)C(=O)N[C@@H]1C[C@H](N)[C@@H](O[C@H]2O[C@H](CN)[C@@H](O)[C@H](O)[C@H]2O)[C@H](O)[C@H]1O[C@H]1O[C@H](CO)[C@@H](O)[C@H](N)[C@H]1O [amikacin, reference compound] | – | IC50 ([1]; Mycobacterium tuberculosis, H37RV): 0.13 µg/mL (≈ 0.222 µM); inhibition at 0.13 µg/mL ([1]; Mycobacterium tuberculosis, H37RV, read-out: inhibition of Mtb growth): 33 to 60% |
| COc1cccc(Nc2cc(C)nc3c(-c4ccccc4)cnn23)c1 [Compound 4b] | 1.8 (≈ 5.45 µM) | – |
| Cc1cc(C)cc(Nc2cc(C)nc3c(-c4ccccc4)cnn23)c1 [Compound 4c] | 2.7 (≈ 8.22 µM) | – |
| COc1ccccc1-c1cnn2c(Nc3cccc(Cl)c3)cc(C)nc12 [Compound 4a] | 1.7 (≈ 4.66 µM) | – |
| O=C(OCn1nnc2ccccc2c1=O)c1ccccc1 [Compound 7a] | – | cytotoxicity (Vero cells): > 40 µg/mL |
| CCOc1ccc(C(=O)Nc2nnc(-c3ccccn3)o2)cc1 [Compound 22a] | – | activity and toxicity in words ([1]; Mtb IC90 and Vero selectivity): potent and relatively non-toxic |
| Cc1cc(Nc2ccc(C)c(C)c2)n2ncc(-c3ccccc3)c2n1 [Compound 4e] | 3.4 (≈ 10.4 µM) | – |
| COP(=S)(OC)SCn1nnc2ccccc2c1=O [azinphosmethyl] | – | susceptibility of larvae [2]: susceptible |
| Cc1cc(Nc2ccc(C)c(Cl)c2)n2ncc(-c3ccccc3)c2n1 [Compound 4d] | 3.4 (≈ 9.75 µM) | – |
